Experimental data reported in ChEMBL document CHEMBL5154811, “Discovery of SPH5030, a Selective, Potent, and Irreversible Tyrosine Kinase Inhibitor for HER2-Amplified and HER2-Mutant Cancer Treatment” (J Med Chem, 2022).

Assays:
[1] = Clearance in Sprague-Dawley rat at 3 mg/kg, iv measured upto 1440 mins by LC/MS/MS analysis; assay type: ADME, organism-based; conditions: in vivo
NCI-N87 [2] = assay: Antitumor activity against human NCI-N87 cells xenografted in BALB/c nude mouse assessed as tumor growth inhibition by measuring relative tumor growth at 10 mg/kg/day, po administered once daily for 21 days by caliper method relative to control; assay type: functional; conditions: time 21 day
[3] = Cmax in cynomolgus monkey at 15 mg/kg, po measured upto 1440 mins by LC/MS/MS analysis; assay type: ADME, organism-based, Macaca fascicularis; set-up: dose 15 mg/kg, time < 1440 min, route po; conditions: in vivo
NCI-N87 [4] = assay: Antitumor activity against human NCI-N87 cells xenografted in BALB/c nude mouse assessed as tumor growth inhibition by measuring relative tumor growth at 20 mg/kg/day, po administered once daily for 21 days by caliper method relative to control; assay type: functional; conditions: time 21 day
BaF3 [5] = assay: Antitumor activity against mouse BaF3 cells harbouring HER2 A775_G776insYVMA mutant xenografted in BALB/c nude mouse assessed as tumor growth inhibition by measuring relative tumor growth at 40 mg/kg, po qd for 13 days by caliper method relative to control; assay type: functional; conditions: time 13 day
[6] = molecular target: Receptor tyrosine-protein kinase erbB-2 (Homo sapiens, UniProt P04626, R896C); assay: Inhibition of HER2 R896C mutant (unknown origin) incubated for 120 mins in presence of 33P-ATP by P81 ion exchange cellulose chromatography
[7] = Toxicity in BALB/c nude mouse xenografted with human BT-474 cells assessed as reduction in body weight at 5 to 40 mg/kg, po administered once daily for 21 days; assay type: organism-based; conditions: in vivo, 504 h, dose 5-40 mg/kg, time 21 day
NUGC-4 = assay: Antiproliferative activity against human NUGC-4 cells assessed as cell growth inhibition incubated for 72 hrs by Celltiter-Glo assay; assay type: functional, cell-based; conditions: NUGC-4, 72 h
[8] = Tmax in ICR mouse at 10 mg/kg, po measured upto 1440 mins by LC/MS/MS analysis; assay type: ADME, organism-based; conditions: in vivo
NCI-H441 = assay: Antiproliferative activity against human NCI-H441 cells assessed as cell growth inhibition incubated for 72 hrs by Celltiter-Glo assay; assay type: functional, cell-based; conditions: NCI-H441, 72 h
[9] = Cmax in Sprague-Dawley rat at 10 mg/kg, po measured upto 1440 mins by LC/MS/MS analysis; assay type: ADME, organism-based; set-up: time < 1440 min, dose 10 mg/kg, route po; conditions: in vivo
[10] = molecular target: Receptor tyrosine-protein kinase erbB-2 (Homo sapiens, UniProt P04626, D769H); assay: Inhibition of HER2 D769H mutant (unknown origin) incubated for 120 mins in presence of 33P-ATP by P81 ion exchange cellulose chromatography
[11] = Tmax in cynomolgus monkey at 15 mg/kg, po measured upto 1440 mins by LC/MS/MS analysis; assay type: ADME, organism-based, Macaca fascicularis; conditions: in vivo
[12] = Clearance in cynomolgus monkey at 1 mg/kg, iv measured upto 1440 mins by LC/MS/MS analysis; assay type: ADME, organism-based, Macaca fascicularis; conditions: in vivo
[13] = Half life in ICR mouse at 10 mg/kg, po measured upto 1440 mins by LC/MS/MS analysis; assay type: ADME, organism-based; conditions: in vivo
[14] = Half life in ICR mouse at 3 mg/kg, iv measured upto 1440 mins by LC/MS/MS analysis; assay type: ADME, organism-based; conditions: in vivo
[15] = Oral bioavailability in cynomolgus monkey at 15 mg/kg measured upto 1440 mins by LC/MS/MS analysis; assay type: ADME, organism-based, Macaca fascicularis; conditions: in vivo
[16] = molecular target: Receptor tyrosine-protein kinase erbB-2 (Homo sapiens, UniProt P04626); assay: Inhibition of wild type human GST-tagged HER2 (676 to end residues) expressed in baculovirus infected Sf9 cells incubated for 30 mins in presence of ATP by HTRF analysis
BT-474 [17] = assay: Antitumor activity against human BT-474 cells xenografted in BALB/c nude mouse assessed as tumor growth inhibition by measuring relative tumor growth at 5 mg/kg/day, po administered once daily for 21 days by caliper method relative to control; assay type: functional; conditions: time 21 day
[18] = Oral bioavailability in Sprague-Dawley rat at 10 mg/kg measured upto 1440 mins by LC/MS/MS analysis; assay type: ADME, organism-based; conditions: in vivo
[19] = Metabolic stability in human liver microsomes assessed as intrinsic clearance at 1 uM preincubated for 5 mins followed by NADPH addition by LC-MS/MS analysis; assay type: ADME, Microsome; conditions: read-out: CLH
MDA-MB-468 = assay: Antiproliferative activity against human MDA-MB-468 cells overexpressing wild type EGFR assessed as cell growth inhibition incubated for 72 hrs by Celltiter-Glo assay; assay type: functional, cell-based; conditions: MDA-MB-468, 72 h
BaF3 [20] = assay: Antitumor activity against mouse BaF3 cells harbouring HER2 A775_G776insYVMA xenografted in BALB/c nude mouse assessed as tumor growth inhibition at 10 mg/kg/day, po qd measured for 13 days relative to control; assay type: functional; conditions: BaF3, 312 h, time 13 day, read-out: TGI
BT-474 [21] = assay: Antitumor activity against human BT-474 cells xenografted in BALB/c nude mouse assessed as tumor growth inhibition by measuring relative tumor growth at 20 mg/kg/day, po administered once daily for 21 days by caliper method relative to control; assay type: functional; conditions: time 21 day
[22] = Half life in cynomolgus monkey at 1 mg/kg, iv measured upto 1440 mins by LC/MS/MS analysis; assay type: ADME, organism-based, Macaca fascicularis; conditions: in vivo
[23] = molecular target: Receptor tyrosine-protein kinase erbB-2 (Homo sapiens, UniProt P04626, D769Y); assay: Inhibition of HER2 D769Y mutant (unknown origin) incubated for 120 mins in presence of 33P-ATP by P81 ion exchange cellulose chromatography
BaF3 [24] = assay: Antiproliferative activity against mouse BaF3 cells harbouring HER2 […] mutant assessed as inhibition of cell growth incubated for 72 hrs by Celltiter-Glo assay; assay type: functional, cell-based; conditions: BaF3, 72 h
BaF3 [25] = assay: Antitumor activity against mouse BaF3 cells harbouring HER2 A775_G776insYVMA mutant xenografted in BALB/c nude mouse assessed as tumor growth inhibition at 20 mg/kg, po qd measured for 13 days relative to control; assay type: functional; conditions: BaF3, 312 h, time 13 day, read-out: TGI
[26] = Toxicity in BALB/c nude mouse xenografted with human NCI-N87 cells assessed as reduction in body weight at 5 to 40 mg/kg, po administered once daily for 21 days; assay type: organism-based; conditions: in vivo, 504 h, dose 5-40 mg/kg, time 21 day

Chain of Receptor tyrosine-protein kinase erbB-2 (Homo sapiens, UniProt P04626, R896C) (P04626 23-1255 R896C limits assumed): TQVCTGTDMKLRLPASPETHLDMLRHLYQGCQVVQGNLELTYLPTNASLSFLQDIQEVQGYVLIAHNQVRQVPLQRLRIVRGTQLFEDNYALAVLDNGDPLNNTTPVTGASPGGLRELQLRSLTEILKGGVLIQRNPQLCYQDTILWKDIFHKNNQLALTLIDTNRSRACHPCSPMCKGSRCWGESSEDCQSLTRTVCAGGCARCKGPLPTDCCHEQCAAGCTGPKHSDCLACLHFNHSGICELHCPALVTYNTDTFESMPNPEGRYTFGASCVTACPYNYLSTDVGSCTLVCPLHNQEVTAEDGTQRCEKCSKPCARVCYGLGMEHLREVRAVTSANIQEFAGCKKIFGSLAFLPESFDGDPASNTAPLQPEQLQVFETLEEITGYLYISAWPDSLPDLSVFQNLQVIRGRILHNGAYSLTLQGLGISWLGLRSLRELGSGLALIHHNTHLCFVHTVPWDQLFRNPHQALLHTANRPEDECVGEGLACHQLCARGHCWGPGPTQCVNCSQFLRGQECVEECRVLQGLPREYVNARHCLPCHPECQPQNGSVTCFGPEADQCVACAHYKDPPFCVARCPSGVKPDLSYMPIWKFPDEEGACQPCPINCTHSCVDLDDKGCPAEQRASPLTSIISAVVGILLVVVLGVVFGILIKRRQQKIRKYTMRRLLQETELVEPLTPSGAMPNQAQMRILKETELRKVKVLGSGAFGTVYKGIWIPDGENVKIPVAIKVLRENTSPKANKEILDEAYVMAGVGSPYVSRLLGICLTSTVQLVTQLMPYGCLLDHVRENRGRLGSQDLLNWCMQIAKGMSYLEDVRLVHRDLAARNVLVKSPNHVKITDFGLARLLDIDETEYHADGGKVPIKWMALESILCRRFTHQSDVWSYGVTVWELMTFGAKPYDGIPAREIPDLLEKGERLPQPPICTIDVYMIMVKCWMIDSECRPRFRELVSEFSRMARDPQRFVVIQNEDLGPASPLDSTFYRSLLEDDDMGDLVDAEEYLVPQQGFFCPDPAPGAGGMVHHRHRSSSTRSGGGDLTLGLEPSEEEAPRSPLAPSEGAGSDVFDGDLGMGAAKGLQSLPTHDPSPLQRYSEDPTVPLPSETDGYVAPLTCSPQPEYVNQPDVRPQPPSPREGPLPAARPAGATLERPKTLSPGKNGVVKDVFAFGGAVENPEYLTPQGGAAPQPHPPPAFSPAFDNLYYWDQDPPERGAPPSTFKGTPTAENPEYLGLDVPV
Chain of Receptor tyrosine-protein kinase erbB-2 (Homo sapiens, UniProt P04626) (P04626 whole entry): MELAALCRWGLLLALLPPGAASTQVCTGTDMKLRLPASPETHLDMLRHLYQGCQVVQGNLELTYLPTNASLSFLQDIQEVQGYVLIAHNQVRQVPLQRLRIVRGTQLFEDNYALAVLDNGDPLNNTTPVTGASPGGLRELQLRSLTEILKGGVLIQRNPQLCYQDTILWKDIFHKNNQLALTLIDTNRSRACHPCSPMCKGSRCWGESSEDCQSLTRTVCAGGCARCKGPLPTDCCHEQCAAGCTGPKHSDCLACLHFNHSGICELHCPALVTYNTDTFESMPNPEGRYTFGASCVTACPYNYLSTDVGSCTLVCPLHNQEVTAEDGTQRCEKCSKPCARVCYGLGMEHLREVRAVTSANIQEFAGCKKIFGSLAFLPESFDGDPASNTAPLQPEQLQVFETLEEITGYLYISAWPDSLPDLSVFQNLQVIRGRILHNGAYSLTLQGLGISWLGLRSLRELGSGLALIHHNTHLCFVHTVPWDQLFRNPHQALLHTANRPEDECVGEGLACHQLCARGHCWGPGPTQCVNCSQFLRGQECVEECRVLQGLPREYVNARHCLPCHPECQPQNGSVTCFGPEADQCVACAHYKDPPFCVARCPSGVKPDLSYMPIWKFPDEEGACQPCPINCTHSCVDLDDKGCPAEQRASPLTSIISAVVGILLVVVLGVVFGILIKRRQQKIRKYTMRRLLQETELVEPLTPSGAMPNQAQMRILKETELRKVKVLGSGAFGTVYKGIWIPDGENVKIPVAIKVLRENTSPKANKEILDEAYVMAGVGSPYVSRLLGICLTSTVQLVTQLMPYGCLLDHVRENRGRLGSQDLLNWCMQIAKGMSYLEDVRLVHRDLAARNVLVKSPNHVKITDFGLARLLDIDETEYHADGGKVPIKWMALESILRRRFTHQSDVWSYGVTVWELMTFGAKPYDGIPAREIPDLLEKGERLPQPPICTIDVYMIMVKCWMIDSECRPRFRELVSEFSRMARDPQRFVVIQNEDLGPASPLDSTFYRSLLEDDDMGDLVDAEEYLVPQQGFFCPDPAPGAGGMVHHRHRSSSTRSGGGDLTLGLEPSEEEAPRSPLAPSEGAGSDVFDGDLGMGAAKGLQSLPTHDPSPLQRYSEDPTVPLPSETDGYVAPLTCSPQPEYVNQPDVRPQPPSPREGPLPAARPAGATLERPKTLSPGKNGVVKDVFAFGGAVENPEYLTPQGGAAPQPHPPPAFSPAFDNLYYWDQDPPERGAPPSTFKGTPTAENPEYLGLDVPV
Chain of Receptor tyrosine-protein kinase erbB-2 (Homo sapiens, UniProt P04626, D769Y) (P04626 23-1255 D769Y limits assumed): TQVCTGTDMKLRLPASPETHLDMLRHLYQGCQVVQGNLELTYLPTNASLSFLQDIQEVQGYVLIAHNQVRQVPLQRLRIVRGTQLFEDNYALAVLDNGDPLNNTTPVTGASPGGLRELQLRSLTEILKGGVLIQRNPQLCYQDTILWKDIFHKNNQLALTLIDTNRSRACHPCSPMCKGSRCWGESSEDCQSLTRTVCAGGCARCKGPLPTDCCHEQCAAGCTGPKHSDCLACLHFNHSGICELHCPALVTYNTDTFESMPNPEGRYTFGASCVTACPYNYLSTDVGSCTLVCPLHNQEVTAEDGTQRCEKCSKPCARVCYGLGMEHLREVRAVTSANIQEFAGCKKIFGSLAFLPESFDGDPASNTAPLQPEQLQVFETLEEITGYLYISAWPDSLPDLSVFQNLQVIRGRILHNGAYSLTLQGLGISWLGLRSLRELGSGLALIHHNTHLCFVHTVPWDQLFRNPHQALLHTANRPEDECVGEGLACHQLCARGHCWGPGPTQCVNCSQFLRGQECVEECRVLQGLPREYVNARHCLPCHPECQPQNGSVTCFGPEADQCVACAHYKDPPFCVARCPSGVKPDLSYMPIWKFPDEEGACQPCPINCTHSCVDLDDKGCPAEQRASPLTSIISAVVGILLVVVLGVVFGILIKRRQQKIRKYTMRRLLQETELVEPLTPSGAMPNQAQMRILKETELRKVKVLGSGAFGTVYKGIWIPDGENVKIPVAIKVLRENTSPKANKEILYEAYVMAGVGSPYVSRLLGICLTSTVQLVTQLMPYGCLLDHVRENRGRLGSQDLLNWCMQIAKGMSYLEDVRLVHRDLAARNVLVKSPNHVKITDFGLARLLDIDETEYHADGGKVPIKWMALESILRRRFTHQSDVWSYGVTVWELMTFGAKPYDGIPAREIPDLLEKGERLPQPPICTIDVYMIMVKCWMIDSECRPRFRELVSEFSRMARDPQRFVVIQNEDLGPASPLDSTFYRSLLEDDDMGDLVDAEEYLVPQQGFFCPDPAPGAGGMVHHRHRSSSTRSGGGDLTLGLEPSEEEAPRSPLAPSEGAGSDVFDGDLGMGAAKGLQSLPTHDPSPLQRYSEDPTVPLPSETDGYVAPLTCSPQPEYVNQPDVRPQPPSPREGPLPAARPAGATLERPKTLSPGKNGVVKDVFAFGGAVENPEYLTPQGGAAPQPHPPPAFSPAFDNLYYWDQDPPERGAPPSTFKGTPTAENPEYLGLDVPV
Chain of Receptor tyrosine-protein kinase erbB-2 (Homo sapiens, UniProt P04626, D769H) (P04626 23-1255 D769H limits assumed): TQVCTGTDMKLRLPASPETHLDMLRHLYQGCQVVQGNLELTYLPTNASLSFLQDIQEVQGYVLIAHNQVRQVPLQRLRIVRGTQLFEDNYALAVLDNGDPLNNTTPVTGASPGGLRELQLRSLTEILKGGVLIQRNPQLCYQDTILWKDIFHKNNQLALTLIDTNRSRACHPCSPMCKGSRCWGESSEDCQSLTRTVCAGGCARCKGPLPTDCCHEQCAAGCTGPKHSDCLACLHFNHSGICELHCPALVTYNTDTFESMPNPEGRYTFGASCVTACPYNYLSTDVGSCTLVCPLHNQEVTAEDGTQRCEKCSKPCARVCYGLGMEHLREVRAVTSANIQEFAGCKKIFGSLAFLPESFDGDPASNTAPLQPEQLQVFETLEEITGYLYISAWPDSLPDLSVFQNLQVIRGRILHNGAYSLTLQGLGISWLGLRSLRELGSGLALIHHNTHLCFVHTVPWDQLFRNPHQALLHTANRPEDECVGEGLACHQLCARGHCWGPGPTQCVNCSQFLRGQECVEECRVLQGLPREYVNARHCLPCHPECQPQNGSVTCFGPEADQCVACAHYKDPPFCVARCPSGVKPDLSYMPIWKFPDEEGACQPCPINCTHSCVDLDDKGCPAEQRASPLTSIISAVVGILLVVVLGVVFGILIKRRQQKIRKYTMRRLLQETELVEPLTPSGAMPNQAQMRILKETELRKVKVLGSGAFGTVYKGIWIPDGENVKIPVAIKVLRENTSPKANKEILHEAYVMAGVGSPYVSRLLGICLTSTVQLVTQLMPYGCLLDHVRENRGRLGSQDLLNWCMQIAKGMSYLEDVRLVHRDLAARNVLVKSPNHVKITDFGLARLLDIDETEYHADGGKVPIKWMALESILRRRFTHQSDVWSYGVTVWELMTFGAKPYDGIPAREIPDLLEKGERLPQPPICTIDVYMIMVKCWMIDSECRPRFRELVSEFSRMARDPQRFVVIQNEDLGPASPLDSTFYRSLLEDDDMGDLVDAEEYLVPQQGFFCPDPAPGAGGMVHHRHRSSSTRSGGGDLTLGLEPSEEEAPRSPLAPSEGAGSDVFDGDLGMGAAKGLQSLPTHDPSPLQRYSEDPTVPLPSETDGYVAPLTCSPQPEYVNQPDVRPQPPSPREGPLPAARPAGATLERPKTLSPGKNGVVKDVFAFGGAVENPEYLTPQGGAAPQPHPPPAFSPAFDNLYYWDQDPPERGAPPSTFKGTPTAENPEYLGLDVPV

CCOc1cc2ncnc(Nc3ccc(Oc4cc5nncn5cn4)c(C)c3)c2cc1NC(=O)/C(F)=C/[C@H]1CCCN1C
clearance [1]: 13 mL/min/kg | T/C (NCI-N87 [2]): 2.6% | Cmax [3]: 790 ng/mL | T/C (NCI-N87 [4]): 2.03% | T/C (BaF3 [5]): 2% | IC50 [6]: 0.56 nM | Activity [7]: Non-Toxic | IC50 (NUGC-4): 1220 nM | Tmax [8]: 2.67 h | IC50 (NCI-H441): 4260 nM | Cmax [9]: 760 ng/mL | IC50 [10]: 0.42 nM | Tmax [11]: 7.5 h | clearance [12]: 10.2 mL/min/kg | half-life [13]: 3.6 h | half-life [14]: 3.76 h | bioavailability [15]: 43.4% | IC50 [16]: 3.51 nM | T/C (BT-474 [17]): 17.68% | bioavailability [18]: 71.3% | microsomal CLint at 1 µM [19]: 2.5 µL/min/mg | IC50 (MDA-MB-468): 2980 nM | inhibition in vivo at 10 mg/kg/day (BaF3 [20]): 95% | T/C (BT-474 [21]): 7.68% | half-life [22]: 7.46 h | IC50 [23]: 0.43 nM | IC50 (BaF3 [24]): 6.3 nM | inhibition in vivo at 20 mg/kg (BaF3 [25]): 107% | Activity [26]: Non-Toxic
